{"source": "paper PMC9934367", "about": "“Functional impact of subunit composition and compensation on Drosophila melanogaster nicotinic receptors–targets of neonicotinoids” (PLOS Genetics, 2023)", "tested_on": "D. melanogaster nAChRs", "experiment": "Comparison of agonist activity between nAChRs expressed in X. laevis oocytes (one-way ANOVA, Kruskal-Wallis);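 for Difference of Imax values: Imax relative to maximal plateau response to ACh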", "format": "cell-based", "procedure,_shortened": "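Agonist pEC50 values, derived from Hill fits of normalised peak currents, were compared across receptors by one-way ANOVA or Kruskal-Wallis. Currents came from oocytes clamped at −100 mV and perfused with atropine-containing saline (0.5 μM), 3–4 days after cRNA injection of fly nAChR subunits and co-factors.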", "key": {"[1]": {"details": "Dα1/Dβ1/Dβ2 vs. Dα1/Dα3/Dβ1/Dβ2"}, "[2]": {"details": "Dα1/Dβ1/Dβ2 vs. Dα2/Dα3/Dβ1/Dβ2"}, "[3]": {"details": "Dα1/Dβ1 vs. Dα1/Dα2/Dα3/Dβ1/Dβ2"}, "[4]": {"details": "Dα2/Dα3/Dβ1/Dβ2 vs. Dα1/Dα2/Dα3/Dβ1/Dβ2"}, "[5]": {"details": "Dα2/Dα3/Dβ1 vs. Dα1/Dα2/Dα3/Dβ1"}, "[6]": {"details": "Dα2/Dα3/Dβ1 vs. Dα1/Dα2/Dα3/Dβ1/Dβ2"}, "[7]": {"details": "Dα2/Dα3/Dβ1 vs. Dα1/Dα2/Dβ1/Dβ2"}, "[8]": {"details": "Dα2/Dα3/Dβ1 vs. Dα1/Dα3/Dβ1/Dβ2"}, "[9]": {"details": "Dα2/Dα3/Dβ1 vs. Dα2/Dα3/Dβ1/Dβ2"}, "[10]": {"details": "Dα3/Dβ1/Dβ2 vs. Dα1/Dα2/Dα3/Dβ1/Dβ2"}, "[11]": {"details": "Dα3/Dβ1/Dβ2 vs. Dα1/Dα2/Dβ1/Dβ2"}, "[12]": {"details": "Dα3/Dβ1/Dβ2 vs. Dα1/Dα3/Dβ1/Dβ2"}, "[13]": {"details": "Dα3/Dβ1/Dβ2 vs. Dα2/Dα3/Dβ1/Dβ2"}, "[14]": {"details": "Dα3/Dβ1 vs. Dα1/Dα2/Dα3/Dβ1/Dβ2"}}}
{"smiles": "O=[N+]([O-])NC1=NCCN1Cc1ccc(Cl)nc1", "note": "[Imidacloprid, imidacloprid]", "values": [{"measurement": "Difference of Imax values", "setting": "[1]", "result": -0.254}, {"measurement": "Difference of pEC50 values", "setting": "[1]", "result": -0.53}, {"measurement": "Difference of Imax values", "setting": "[2]", "result": -0.049}, {"measurement": "Difference of pEC50 values", "setting": "[2]", "result": -0.01}, {"measurement": "Difference of Imax values", "setting": "Dα1/Dβ1/Dβ2 vs. Dα3/Dβ1/Dβ2", "result": 0.037}, {"measurement": "Difference of pEC50 values", "setting": "Dα1/Dβ1/Dβ2 vs. Dα3/Dβ1/Dβ2", "result": -1.29}, {"measurement": "Difference of Imax values", "setting": "Dα1/Dβ1 vs. Dα1/Dα2/Dα3/Dβ1", "result": 0.028}, {"measurement": "Difference of pEC50 values", "setting": "Dα1/Dβ1 vs. Dα1/Dα2/Dα3/Dβ1", "result": 0.08}, {"measurement": "Difference of Imax values", "setting": "[3]", "result": -0.020}, {"measurement": "Difference of pEC50 values", "setting": "[3]", "result": 0.69}, {"measurement": "Difference of Imax values", "setting": "Dα1/Dβ1 vs. Dα1/Dα2/Dβ1", "result": 0.091}, {"measurement": "Difference of pEC50 values", "setting": "Dα1/Dβ1 vs. Dα1/Dα2/Dβ1", "result": 0.45}, {"measurement": "Difference of Imax values", "setting": "Dα1/Dβ1 vs. Dα1/Dα2/Dβ1/Dβ2", "result": -0.043}, {"measurement": "Difference of pEC50 values", "setting": "Dα1/Dβ1 vs. Dα1/Dα2/Dβ1/Dβ2", "result": 0.71}, {"measurement": "Difference of Imax values", "setting": "Dα1/Dβ1 vs. Dα1/Dα3/Dβ1", "result": -0.048}, {"measurement": "Difference of pEC50 values", "setting": "Dα1/Dβ1 vs. Dα1/Dα3/Dβ1", "result": -0.42}, {"measurement": "Difference of Imax values", "setting": "Dα1/Dβ1 vs. Dα1/Dα3/Dβ1/Dβ2", "result": -0.208}, {"measurement": "Difference of pEC50 values", "setting": "Dα1/Dβ1 vs. Dα1/Dα3/Dβ1/Dβ2", "result": -0.36}, {"measurement": "Difference of Imax values", "setting": "Dα1/Dβ1 vs. Dα1/Dβ1/Dβ2", "result": 0.046}, {"measurement": "Difference of pEC50 values", "setting": "Dα1/Dβ1 vs. Dα1/Dβ1/Dβ2", "result": 0.17}, {"measurement": "Difference of Imax values", "setting": "Dα1/Dβ1 vs. Dα2/Dα3/Dβ1", "result": 0.021}, {"measurement": "Difference of pEC50 values", "setting": "Dα1/Dβ1 vs. Dα2/Dα3/Dβ1", "result": 0.28}, {"measurement": "Difference of Imax values", "setting": "Dα1/Dβ1 vs. Dα2/Dα3/Dβ1/Dβ2", "result": -0.003}, {"measurement": "Difference of pEC50 values", "setting": "Dα1/Dβ1 vs. Dα2/Dα3/Dβ1/Dβ2", "result": 0.16}, {"measurement": "Difference of Imax values", "setting": "Dα1/Dβ1 vs. Dα3/Dβ1", "result": 0.090}, {"measurement": "Difference of pEC50 values", "setting": "Dα1/Dβ1 vs. Dα3/Dβ1", "result": -1.16}, {"measurement": "Difference of Imax values", "setting": "Dα1/Dβ1 vs. Dα3/Dβ1/Dβ2", "result": 0.083}, {"measurement": "Difference of pEC50 values", "setting": "Dα1/Dβ1 vs. Dα3/Dβ1/Dβ2", "result": -1.12}, {"measurement": "Difference of Imax values", "setting": "[4]", "result": -0.017}, {"measurement": "Difference of pEC50 values", "setting": "[4]", "result": 0.53}, {"measurement": "Difference of Imax values", "setting": "[5]", "result": 0.007}, {"measurement": "Difference of pEC50 values", "setting": "[5]", "result": -0.20}, {"measurement": "Difference of Imax values", "setting": "[6]", "result": -0.041}, {"measurement": "Difference of pEC50 values", "setting": "[6]", "result": 0.41}, {"measurement": "Difference of Imax values", "setting": "[7]", "result": -0.064}, {"measurement": "Difference of pEC50 values", "setting": "[7]", "result": 0.43}, {"measurement": "Difference of Imax values", "setting": "[8]", "result": -0.229}, {"measurement": "Difference of pEC50 values", "setting": "[8]", "result": -0.64}, {"measurement": "Difference of Imax values", "setting": "Dα2/Dα3/Dβ1 vs. Dα1/Dβ1/Dβ2", "result": 0.025}, {"measurement": "Difference of pEC50 values", "setting": "Dα2/Dα3/Dβ1 vs. Dα1/Dβ1/Dβ2", "result": -0.11}, {"measurement": "Difference of Imax values", "setting": "[9]", "result": -0.024}, {"measurement": "Difference of pEC50 values", "setting": "[9]", "result": -0.12}, {"measurement": "Difference of Imax values", "setting": "Dα2/Dα3/Dβ1 vs. Dα3/Dβ1/Dβ2", "result": 0.062}, {"measurement": "Difference of pEC50 values", "setting": "Dα2/Dα3/Dβ1 vs. Dα3/Dβ1/Dβ2", "result": -1.40}, {"measurement": "Difference of Imax values", "setting": "[10]", "result": -0.103}, {"measurement": "Difference of pEC50 values", "setting": "[10]", "result": 1.81}, {"measurement": "Difference of Imax values", "setting": "[11]", "result": -0.126}, {"measurement": "Difference of pEC50 values", "setting": "[11]", "result": 1.83}, {"measurement": "Difference of Imax values", "setting": "[12]", "result": -0.291}, {"measurement": "Difference of pEC50 values", "setting": "[12]", "result": 0.76}, {"measurement": "Difference of Imax values", "setting": "[13]", "result": -0.086}, {"measurement": "Difference of pEC50 values", "setting": "[13]", "result": 1.28}, {"measurement": "Difference of Imax values", "setting": "Dα3/Dβ1 vs. Dα1/Dα2/Dα3/Dβ1", "result": -0.062}, {"measurement": "Difference of pEC50 values", "setting": "Dα3/Dβ1 vs. Dα1/Dα2/Dα3/Dβ1", "result": 1.24}, {"measurement": "Difference of Imax values", "setting": "[14]", "result": -0.110}, {"measurement": "Difference of pEC50 values", "setting": "[14]", "result": 1.85}, {"measurement": "Difference of Imax values", "setting": "Dα3/Dβ1 vs. Dα1/Dα2/Dβ1", "result": 0.001}, {"measurement": "Difference of pEC50 values", "setting": "Dα3/Dβ1 vs. Dα1/Dα2/Dβ1", "result": 1.61}, {"measurement": "Difference of Imax values", "setting": "Dα3/Dβ1 vs. Dα1/Dα2/Dβ1/Dβ2", "result": -0.133}, {"measurement": "Difference of pEC50 values", "setting": "Dα3/Dβ1 vs. Dα1/Dα2/Dβ1/Dβ2", "result": 1.87}, {"measurement": "Difference of Imax values", "setting": "Dα3/Dβ1 vs. Dα1/Dα3/Dβ1", "result": -0.138}, {"measurement": "Difference of pEC50 values", "setting": "Dα3/Dβ1 vs. Dα1/Dα3/Dβ1", "result": 0.74}, {"measurement": "Difference of Imax values", "setting": "Dα3/Dβ1 vs. Dα1/Dα3/Dβ1/Dβ2", "result": -0.298}, {"measurement": "Difference of pEC50 values", "setting": "Dα3/Dβ1 vs. Dα1/Dα3/Dβ1/Dβ2", "result": 0.80}, {"measurement": "Difference of Imax values", "setting": "Dα3/Dβ1 vs. Dα1/Dβ1/Dβ2", "result": -0.044}, {"measurement": "Difference of pEC50 values", "setting": "Dα3/Dβ1 vs. Dα1/Dβ1/Dβ2", "result": 1.33}, {"measurement": "Difference of Imax values", "setting": "Dα3/Dβ1 vs. Dα2/Dα3/Dβ1", "result": -0.069}, {"measurement": "Difference of pEC50 values", "setting": "Dα3/Dβ1 vs. Dα2/Dα3/Dβ1", "result": 1.44}, {"measurement": "Difference of Imax values", "setting": "Dα3/Dβ1 vs. Dα2/Dα3/Dβ1/Dβ2", "result": -0.093}, {"measurement": "Difference of pEC50 values", "setting": "Dα3/Dβ1 vs. Dα2/Dα3/Dβ1/Dβ2", "result": 1.32}, {"measurement": "Difference of Imax values", "setting": "Dα3/Dβ1 vs. Dα3/Dβ1/Dβ2", "result": -0.007}, {"measurement": "Difference of pEC50 values", "setting": "Dα3/Dβ1 vs. Dα3/Dβ1/Dβ2", "result": 0.04}]}
